Assay results reported in US20250040554A1, “NEW USES OF PHENMEDIPHAM AND HERBICIDAL COMBINATIONS COMPRISING PHENMEDIPHAM” (BAYER AKTIENGESELLSCHAFT, priority 2021, published 2025).

Experiments:
Assay type in all cases: in vivo
[1] = test system: CCHEC=Cenchrus echinatus; assay: Weed control field trial CCHEC
Description: (§1) The respective (combinations of) materials were applied to weed plants in the greenhouse or in the field at the respective growth stage indicated hereinafter for the different weed species mentioned below. The respective (combinations of) active ingredients were also applied to corn, cotton and soybean crop plants, and the selectivity (damage) in these crop plants rated (assessed).
(§2) Visual scoring of the damage to the trial plants took place after the time mentioned in the respective Table—indicated in number of Days After Application (DAA). Damage and development of all above-ground parts of the respective plants was recorded. Visual rating was done on a percentage scale in relation to the untreated control (100%=all plants dead; 50%=green plant biomass reduced by 50%, and 0%=no discernible difference=like control plot).
(§3) The trials in the greenhouse were sprayed with an application volume of 300 L/ha with an automated track sprayer. The plots in the field were sprayed with an application volume of 140 L/ha with a hand held spray boom.
(§4) wherein • A, B=respective value in percent of active ingredient A at a dose rate of a g/ha, ingredient B at a dose rate of b g/ha • E^C=Expected value according to Colby (S. R. Colby; Weeds 15 (1967), 20-22) in % at a dose rate of a+b, each in g/ha • Δ=Difference (in %) between measured value E and expected value E^C (%) (measured value minus expected value)
(§5) The growth stages of the different weed species are indicated according to the BBCH monograph “Growth stages of mono- and dicotyledonous plants”, 2nd edition, 2001, ed. Uwe Meier, Federal Biological Research Centre for Agriculture and Forestry (Biologische Bundesanstalt für Land und Forstwirtschaft).
(§6) After the harmful plants had emerged, they were treated, at the respective growth stage indicated, with the respective materials as indicated at a water application rate of 140 L/ha.
(§7) After the treatment (21 or 35 days after application of the respective material), the herbicidal activity of respective material was scored visually at the same time by comparing the differently treated plots with the untreated control plots. The score figures of the different plots were averaged.
(§8) The dose rates of herbicidal ingredients used in each case are indicated for the respective active ingredient and refer to the amount of active ingredient per hectare (g/ha).
(§9) The weed control activity of different (combinations of) herbicidal active ingredients was investigated in field trials for the following weed species: • AMAVI=Amaranthus viridis • IPOAO=Ipomoea aristolochiaefolia • EPHHL=Euphorbia heterophylla • BIDPI=Bidens pilosa • BRADC=Brachiaria decumbens • ELEIN=Eleusine indica • CCHEC=Cenchrus echinatus
(§10) The growth stage of AMAVI was BBCH 13, the growth stage of IPOAO was BBCH 15, the growth stage of EPHHL was BBCH 13, the growth stage of BIDPI was BBCH 14, the growth stage of BRADC was BBCH 23, the growth stage of ELEIN was BBCH 11 and the growth stage of CCHEC was BBCH 12 at the time of application of the respective material.
(§11) Phenmedipham and Mesotrione were applied at varying application rates (Dose Rate) to the different species of weed plants. The results are shown in Tables 3a to 3e as the % control when assessed 21 and 35 days after application (DAA), respectively.
(§12) In all the trials of Tables 3a to 3e Mero® (rapeseed oil methyl ester) was added to the respective spray mixture in an amount corresponding to 1 L/ha for PMP, 1 L/ha for MST, and 2 L/ha for mixtures of PMP+MST.

[2] = test system: AMAVI=Amaranthus viridis; assay: Weed control field trial AMAVI
Description: as §1, §2, §3, §4, §5, §6, §7, §8, §9, §10, §11, §12

[3] = test system: EPHHL=Euphorbia heterophylla; assay: Weed control field trial EPHHL
Description: as §1, §2, §3, §4, §5, §6, §7, §8, §9, §10, §11, §12

[4] = test system: BIDPI=Bidens pilosa; assay: Weed control field trial BIDPI
Description: as §1, §2, §3, §4, §5, §6, §7, §8, §9, §10, §11, §12

[5] = test system: IPOAO=Ipomoea aristolochiaefolia; assay: Weed control field trial IPOAO
Description: as §1, §2, §3, §4, §5, §6, §7, §8, §9, §10, §11, §12

[6] = test system: ELEIN=Eleusine indica; assay: Weed control field trial ELEIN
Description: as §1, §2, §3, §4, §5, §6, §7, §8, §9, §10, §11, §12

[7] = test system: KCHSC=Kochia scoparia; assay: Weed control field trial KCHSC; settings: 15 DAA
Description: as §1, §2, §4
After the harmful plants had emerged, they were treated, at the respective growth stage indicated, with the respective materials as indicated at a water application rate of 187 L/ha.
After the treatment (15 days after the treatment), the herbicidal activity of respective material was scored visually at the same time by comparing the differently treated plots with the untreated control plots. The score figures of the different plots were averaged.
as §8
The weed control activity of different (combinations of) herbicidal active ingredients was investigated in field trials for the following weed species: • AMARE=Amaranthus retroflexus • KCHSC=Kochia scoparia • PANRA=Panicum ramosum
The growth stage of AMARE was BBCH 19, the growth stage of KCHSC was BBCH 19 and the growth stage of PANRA was BBCH 22 at the time of application of the respective material.
Phenmedipham and the respective aroylcyclohexanedione herbicide were applied at varying application rates (Dose Rate) to the different species of weed plants. The results are shown in Tables 4a to 4d as the % control when assessed 15 days after application (DAA), respectively.
In all the trials of Tables 4a to 4d Mero® (rapeseed oil methyl ester) was added to the respective spray mixture in an amount corresponding to 1 L/ha for PMP, 1 L/ha for the respective aroylcyclohexanedione herbicide, and 2 L/ha for mixtures of PMP+the respective aroylcyclohexanedione herbicide.

CS(=O)(=O)c1ccc(C(=O)C2C(=O)CCCC2=O)c([N+](=O)[O-])c1 [MST, 2-[4-(methylsulfonyl)-2-nitrobenzoyl]cyclohexane-1,3-dione]
80%: % control BIDPI ([4]; 25 g/ha, 21 DAA) | % control BIDPI ([4]; 25 g/ha, 35 DAA) | % control BIDPI ([4]; 50 g/ha, 21 DAA) | % control BIDPI ([4]; 50 g/ha, 35 DAA)
40%: % control KCHSC ([7]; 20 g/ha)
0%: % control CCHEC ([1]; 25 g/ha, 35 DAA) | % control CCHEC ([1]; 50 g/ha, 35 DAA) | % control EPHHL ([3]; 25 g/ha, 21 DAA) | % control EPHHL ([3]; 25 g/ha, 35 DAA) | % control EPHHL ([3]; 50 g/ha, 35 DAA) | % control IPOAO ([5]; 25 g/ha, 21 DAA) | % control IPOAO ([5]; 25 g/ha, 35 DAA) | % control IPOAO ([5]; 50 g/ha, 35 DAA) | % control ELEIN ([6]; 25 g/ha, 21 DAA) | % control ELEIN ([6]; 25 g/ha, 35 DAA)
50%: % control KCHSC ([7]; 100 g/ha)
17%: % control CCHEC ([1]; 50 g/ha, 21 DAA) | % control EPHHL ([3]; 50 g/ha, 21 DAA) | % control IPOAO ([5]; 50 g/ha, 21 DAA) | % control ELEIN ([6]; 50 g/ha, 21 DAA) | % control ELEIN ([6]; 50 g/ha, 35 DAA)
10%: % control AMAVI ([2]; 25 g/ha, 21 DAA) | % control AMAVI ([2]; 25 g/ha, 35 DAA) | % control AMAVI ([2]; 50 g/ha, 21 DAA) | % control AMAVI ([2]; 50 g/ha, 35 DAA)
45%: % control KCHSC ([7]; 40 g/ha) | % control KCHSC ([7]; 60 g/ha) | % control KCHSC ([7]; 80 g/ha)

COC(=O)Nc1cccc(OC(=O)Nc2cccc(C)c2)c1 [PMP, 3-[(methoxyformyl)amino]phenyl (3-methylphenyl)carbamate]
0%: % control CCHEC ([1]; 75 g/ha, 21 DAA) | % control CCHEC ([1]; 75 g/ha, 35 DAA) | % control CCHEC ([1]; 100 g/ha, 21 DAA) | % control CCHEC ([1]; 100 g/ha, 35 DAA) | % control CCHEC ([1]; 125 g/ha, 21 DAA) | % control CCHEC ([1]; 125 g/ha, 35 DAA) | % control CCHEC ([1]; 250 g/ha, 21 DAA) | % control CCHEC ([1]; 250 g/ha, 35 DAA) | % control AMAVI ([2]; 75 g/ha, 21 DAA) | % control AMAVI ([2]; 75 g/ha, 35 DAA) | % control AMAVI ([2]; 100 g/ha, 21 DAA) | % control AMAVI ([2]; 100 g/ha, 35 DAA) | % control AMAVI ([2]; 125 g/ha, 21 DAA) | % control AMAVI ([2]; 125 g/ha, 35 DAA) | % control AMAVI ([2]; 250 g/ha, 21 DAA) | % control AMAVI ([2]; 250 g/ha, 35 DAA) | % control EPHHL ([3]; 75 g/ha, 21 DAA) | % control EPHHL ([3]; 75 g/ha, 35 DAA) | % control EPHHL ([3]; 100 g/ha, 21 DAA) | % control EPHHL ([3]; 100 g/ha, 35 DAA) | % control EPHHL ([3]; 125 g/ha, 21 DAA) | % control EPHHL ([3]; 125 g/ha, 35 DAA) | % control EPHHL ([3]; 250 g/ha, 21 DAA) | % control EPHHL ([3]; 250 g/ha, 35 DAA) | % control BIDPI ([4]; 75 g/ha, 21 DAA) | % control BIDPI ([4]; 75 g/ha, 35 DAA) | % control BIDPI ([4]; 100 g/ha, 21 DAA) | % control BIDPI ([4]; 100 g/ha, 35 DAA) | % control BIDPI ([4]; 125 g/ha, 21 DAA) | % control BIDPI ([4]; 125 g/ha, 35 DAA) | % control BIDPI ([4]; 250 g/ha, 21 DAA) | % control BIDPI ([4]; 250 g/ha, 35 DAA) | % control IPOAO ([5]; 75 g/ha, 21 DAA) | % control IPOAO ([5]; 75 g/ha, 35 DAA) | % control IPOAO ([5]; 100 g/ha, 21 DAA) | % control IPOAO ([5]; 100 g/ha, 35 DAA) | % control IPOAO ([5]; 125 g/ha, 21 DAA) | % control IPOAO ([5]; 125 g/ha, 35 DAA) | % control IPOAO ([5]; 250 g/ha, 21 DAA) | % control IPOAO ([5]; 250 g/ha, 35 DAA) | % control ELEIN ([6]; 75 g/ha, 21 DAA) | % control ELEIN ([6]; 75 g/ha, 35 DAA) | % control ELEIN ([6]; 100 g/ha, 21 DAA) | % control ELEIN ([6]; 100 g/ha, 35 DAA) | % control ELEIN ([6]; 125 g/ha, 21 DAA) | % control ELEIN ([6]; 125 g/ha, 35 DAA) | % control ELEIN ([6]; 250 g/ha, 21 DAA) | % control ELEIN ([6]; 250 g/ha, 35 DAA) | % control KCHSC ([7]; 150 g/ha)
5%: % control KCHSC ([7]; 300 g/ha)
